In brackets after ≈: the same amount, converted by molar mass. Like-named read-outs stand apart in the source and are kept apart here.
Assays:
[1] = IC50 values and selectivity of Table 10A (target yeast, anti-target human cytochrome); type: biochemical
Procedure: (§1) All measurements were performed in triplicate.

Plasma stability = details: % remaining in human plasma after a 5-hour incubation
C. albicans CaCi-8 = experiment: microbe, parasite or virus in culture; type: cell-based, Candida albicans
Method in brief: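 Hits tested for chemosensitization of the fluconazole-resistant CaCi-8 strain, for inherent antifungal activity without fluconazole, and for mammalian fibroblast toxicity by fluorescence reporter. Geldanamycin plus fluconazole served as positive control; a Saccharomyces assay assigned mechanism to Hsp90, calcineurin or other pathways.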

Plasma protein binding = details: for Plasma Protein Binding: % bound in human plasma; for fraction unbound: human, plasma
PBS solubility = details: for solubility: aqueous buffer
C. albicans CaCi-2 [2] = experiment: Secondary single-agent (no-fluconazole) activity assay; type: cell-based, Candida albicans; details: read-out: Target Potency (μM) Mean ± S.E.M CaCi-2^b IC50
Procedure: Clear, flat-bottom, black, 384-well plates were obtained from Corning. […] Pen/Strep was obtained from Gibco and prepared 100× in PBS. Fluconazole was obtained from Sigma and prepared in 2 mg/ml stock solution in PBS. Alamar Blue was obtained from Biosource International (Catalog No. DAL1100). Phosphate buffered solution (PBS) without calcium and magnesium was obtained from Cellgro.
Fungal inoculum was prepared as follows: 500 μl of yeast was inoculated from cryopreserved stock into a 250-ml shaker flask containing 30 ml growth medium and shaken overnight (16 hours) at 30° C. The culture was spun down, and the broth was poured off and washed with RPMI medium. The culture was spun down again, and the broth was poured off and resuspended in RPMI medium. The OD 600 of 1 ml of fungal culture in a cuvette was read using a standard optical density reader with growth medium as a background blank. The desired volume of fungal inoculum was diluted to starting OD of the fungal inoculum of 0.00015 A600.
Pen/Strep was added to the media to a final 1% concentration. A Combi NL (Thermo) was used to dispense 20 μl/well of assay media into all wells. Geldanamycin (1.5 mM) and fluconazole (0.2 mg/ml) were mixed for the positive control. Then, 80 nl of positive control solution was dispensed into the positive control wells using Thermo Combi nL for a final concentration of 3 μM geldanamycin and 8 μg/ml fluconazole. Then, 100 nl of test compound were pinned from the compound plates into assay plates using a CyBi-Well pin tool. A further 20 μl/well of RPMI synthetic defined medium culture was dispensed into 384-well, black plates. Fungal suspension (20 μl/well) was dispensed into all wells. The plates were incubated in a humidified (90% humidity) Liconic incubator at 37° C. without agitation for 48 hours. Alamar Blue Reagent was diluted 1:40 in Ca/Mg-free PBS. To all plates, 6.4 μl/well of the diluted Alamar Blue was added to the plates to a final dilution factor of 1:200. The plates were incubated for 2 hours at room temperature. Next, RFU of wells was read on a standard plate reader as a measure of relative fungal growth.

[3] = system: NIH-3T3 mammalian fibroblasts; experiment: Counterscreen mammalian cell toxicity assay (fibroblast toxicity); type: cell-based, murine; details: for IC50: footnote: in the absence of fluconazole, read-out: Anti-target Potency (μM) Mean ± S.E.M Fibroblasts^b IC50
C. albicans CaCi-2 [4] = experiment: CaCi-2 growth inhibition in the presence of 8 μg/ml fluconazole (Alamar Blue); type: cell-based, Candida albicans; details: in the presence of fluconazole; read-out: Target Potency (μM) Mean ± S.E.M CaCi-2^a IC50
Procedure: Fluconazole was obtained from Sequoia Research Products, Ltd. and prepared in a 2 mg/ml stock solution in phosphate buffered saline (PBS). […] PBS (Catalog No. 21-040-CV) without calcium and magnesium was obtained from Cellgro. Penicillin/Streptomycin (Pen/Strep) was obtained from Gibco and prepared 100× in PBS.
RPMI medium (1×) was prepared by dissolving 10.4 g powdered medium in 800 ml water. A buffer of 34.52 g MOPS was added. While stirring, pH was adjusted to 7.0 with 10 N NaOH. Next, 10 ml uridine solution and 50 ml glucose solution were added. The final volume was adjusted to 1000 ml, and filter sterilized.
The following yeast strains were used in this study: C. albicans CaCi-2. Fungal inoculum was prepared as follows: 500 μl of strain was inoculated from cryopreserved stock into a 250-ml shaker flask containing 30 ml growth medium and shaken overnight at 30° C. The optical density (OD 600) of 1 ml fungal culture in a cuvette was read using a standard optical density reader (Eppendorf BioPhotometer Plus), with growth medium as a background blank. The desired volume of fungal inoculums was diluted to desired volume of fungal inoculums according to the following formula: (1/OD measured)×(Desired Final Volume of Inoculum)×0.3=Volume of fungal culture (μl) to add to desired volume of growth medium. When added to media in wells, this yields a calculated starting OD of the fungal inoculum of 0.00015.
Fluconazole stock solution was added to the fungal inoculum to achieve 8 μg/ml. Pen/Strep was added to the media to a 1% concentration (v/v). A Thermo Combi nL was used to dispense 20 μl/well of assay media into all wells. Geldanamycin was dispensed in positive control wells using Thermo Combi nL for a final concentration of 3 μM. Then, 100 nl of test compound was pinned from compound plates into assay plates using a CyBi-Well pin tool. A further 20 μl/well of culture was dispensed into the assay media in all wells. The plates were incubated in a humidified (90% humidity) Liconic incubator at 37° C. without agitation for 48 hours. Alamar Blue was diluted 1:40 in Ca/Mg-free PBS. To all plates, […] of the diluted Alamar Blue was added to the plates to a final dilution factor of 1:200. The plates were incubated for an additional 2 hours. Then, Relative Fluorescence Intensity (RFU) of each well was read on standard plate reader as a measure of relative fungal growth.

yeast = biological target: T1, yeast (Saccharomyces cerevisiae, UniProt P00163); experiment: IC50 values and selectivity of Table 10A (target yeast, anti-target human cytochrome); type: biochemical
T1 construct: Mitochondrial membranes were prepared from yeast; endogenous in cells; host or cells: yeast (mitochondrial membranes)
Procedure: as §1

[5] = in the presence of fluconazole; read-out: Target Potency (μM) Mean ± S.E.M CaCi-8^a IC50
[6] = read-out: Target Potency (μM) Mean ± S.E.M CaCi-8^a IC50; in the presence of fluconazole
[7] = Candida albicans, CACI2, in the absence of fluconazole

Compound | Plasma Stability (Plasma stability) [%] | IC50 (C. albicans CaCi-8; [6]) [µM] | fraction unbound (Plasma protein binding) | IC50 ([3]; Mus musculus, NIH3T3) [µM] | solubility (PBS solubility; PBS) [µM] | IC50 (C. albicans CaCi-2 [2]; [7]) [µM] | other results
COC(=O)Cn1nc(-c2ccccn2)c2ccccc21 [Compound I-120] | – | – | – | – | – | – | IC50 [1]: 15 µM
O=C(Cn1nc(-c2ccccc2)c2ccccc21)N1CCc2ccccc2C1 [Compound 20877557] | 97 | – | – | – | – | – | IC50 (C. albicans CaCi-8; [5]): > 26 µM; Plasma Protein Binding (Plasma protein binding): > 99%; PBS Solubility (PBS solubility; PBS): < 1.0 µM; IC50 (C. albicans CaCi-2 [2]; in the absence of fluconazole): > 26 µM
COc1ccc(-c2n[nH]c3ccccc23)cc1 [Compound 9855970] | 89 | > 26 | 0.02 | > 6 | < 1 | > 26 | –
COC(=O)CCn1nc(-c2ccccc2)c2ccccc21 [Compound 49835835] | 74 | – | – | – | – | – | IC50 (C. albicans CaCi-8; [5]): > 26 µM; Plasma Protein Binding (Plasma protein binding): > 99%; PBS Solubility (PBS solubility; PBS): < 1.0 µM; IC50 (C. albicans CaCi-2 [2]; in the absence of fluconazole): > 26 µM
O=C(O)c1nn(Cc2ccc(Cl)cc2)c2ccccc12 [Compound 100493] | > 99 | > 26 | < 0.01 | > 6 | 516 (≈ 148 µg/mL) | > 26 | –
COC(=O)Cn1nc(-c2cncnc2)c2ccccc21 [Compound 49835858] | < 1.0 | – | – | > 6 | 155 (≈ 41.5 µg/mL) | > 26 | –
O=C(Cn1nc(-c2ccccc2)c2cc(Cl)ccc21)N1CCOCC1 [Compound 20877381] | 99 | > 26 | 0.04 | > 6 | 8 (≈ 2.85 µg/mL) | > 26 | –
c1ccc(-c2nn(Cc3nn[nH]n3)c3ccccc23)cc1 [Compound I-87] | – | – | – | – | – | – | IC50 [1]: > 160 µM
O=C(O)c1c2ccccc2nn1Cc1ccc(Cl)cc1 [Compound 14420592] | 96 | > 26 | < 0.01 | > 6 | 503 (≈ 144 µg/mL) | > 26 | –
COC(=O)[C@@H](C)n1nc(-c2ccccc2)c2ccccc21.COC(=O)[C@H](C)n1nc(-c2ccccc2)c2ccccc21 [Compound 49835813] | 61 | – | – | – | – | – | IC50 (C. albicans CaCi-8; [5]): 15.8 µM; Plasma Protein Binding (Plasma protein binding): > 99%; PBS Solubility (PBS solubility; PBS): < 1.0 µM; IC50 (C. albicans CaCi-2 [4]): 6.56 ± 0.79 µM; IC50 (C. albicans CaCi-2 [2]; in the absence of fluconazole): > 26 µM
O=C(O)Cn1nc(-c2ccccc2)c2ccccc21 [Compound I-107] | – | – | – | – | – | – | IC50 [1]: > 120 µM
COC(=O)Cn1c(-c2ccccc2)nc2ccccc21 [Compound 4131200] | 46 | > 26 | 0.05 | > 6 | 438 (≈ 117 µg/mL) | > 26 | –
CNC(=O)Cn1nc(-c2ccccc2)c2ccccc21 [Compound I-75] | – | – | – | – | – | – | IC50 [1]: > 80 µM
COC(=O)Cn1nc(-c2ccccc2)c2ccccc21 [Compound I-96] | – | – | – | – | – | – | IC50 [1]: 0.6 µM
CCOC(=O)c1nn(Cc2ccc(Cl)cc2)c2ccccc12 [Compound 12312246] | 93 | > 26 | < 0.01 | > 6 | – | > 26 | solubility (PBS solubility): < 0.1 µM
CCC(=O)Cn1nc(-c2ccccc2)c2ccccc21 [Compound 49835816] | 98 | – | – | – | – | – | IC50 (C. albicans CaCi-8; [5]): > 26 µM; Plasma Protein Binding (Plasma protein binding): 99%; PBS Solubility (PBS solubility; PBS): < 1.0 µM; IC50 (C. albicans CaCi-2 [2]): > 26 µM
CNC(=O)Cn1nc(-c2ccccc2)c2ccccc21 [Compound 13330955] | > 99 | – | – | – | – | – | IC50 (C. albicans CaCi-8; [5]): > 26 µM; Plasma Protein Binding (Plasma protein binding): 93%; PBS Solubility (PBS solubility; PBS): < 18.5 µM; IC50 (C. albicans CaCi-2 [2]; in the absence of fluconazole): > 26 µM
FC(F)(F)c1ccc(-c2n[nH]c3ccccc23)cc1 [Compound 49635869] | 79 | > 26 | < 0.01 | > 6 | < 1 | > 26 | –
CCCNC(=O)Cn1nc(-c2ccccc2)c2cc(Cl)ccc21 [Compound 20877322] | 97 | > 26 | < 0.01 | > 6 | < 1 | > 26 | –
Cc1nn(S(C)(=O)=O)c2ccccc12 [Compound 46856251] | > 99 | > 26 | 0.37 | > 6 | 494 (≈ 104 µg/mL) | > 26 | –
COC(=O)Cn1nc(I)c2ccccc21 [Compound 49835832] | 1.3 | – | – | – | – | – | IC50 (C. albicans CaCi-8; [5]): 18.8 µM; Plasma Protein Binding (Plasma protein binding): 98%; IC50 [3]: 0.53 µM; PBS Solubility (PBS solubility; PBS): 143.5 µM
CCOC(=O)c1c2ccccc2nn1Cc1ccc(Cl)cc1 [Compound 46856252] | 70 | > 26 | < 0.01 | > 6 | < 1 | > 26 | –
Brc1cccnc1Cn1nc(-c2ccccc2)c2ccccc21 [Compound I-113] | – | – | – | – | – | – | IC50 [1]: > 120 µM
COC(=O)Cn1nc(-c2ccccc2)c2cccc(C(F)(F)F)c21 [Compound 49835842] | 50 | > 26 | < 0.01 | > 6 | < 1 | > 26 | –
O=C(Cn1nc(C(=O)N2CCCCC2)c2ccccc21)N1CCOCC1 [Compound 46378661] | > 99 | > 26 | 0.48 | > 6 | 529 (≈ 189 µg/mL) | > 26 | –
COC(=O)Cn1nc(-c2cccc(F)c2)c2ccccc21 [Compound I-71] | < 1.0 | – | 0.04 | 12.9 | < 1 | > 26 | ** CaCi-2 to anti-target fold selectivity ([3]; fibroblast IC50 over CaCi-2 IC50 with fluconazole): 9.1; IC50 (yeast; target is yeast): 0.25 µM; Selectivity* (anti-target IC50)/(target IC50) (yeast; target yeast, anti-target human cytochrome): 80
CN(C)C(=O)Cn1nc(-c2ccccc2)c2ccccc21 [Compound 49835882] | 98 | – | – | – | – | – | IC50 (C. albicans CaCi-8; [5]): > 26 µM; Plasma Protein Binding (Plasma protein binding): 98%; PBS Solubility (PBS solubility; PBS): 325.5 µM; IC50 (C. albicans CaCi-2 [2]): > 26 µM

From patent US9738610B2, “Indazole derivatives and uses thereof” (Whitehead Institute for Biomedical Research, priority 2012, dated 2017)
